Test results from patent publication US20150250864A1, “ANTI-CANCER VACCINES” (Board of Regents, The University of Texas System, priority 2012, published 2015).

How the values were obtained:
[1] = test system: T cells from HLA A2+ normal donor; test: IFN-γ ELISPOT, T cells stimulated by 9-mer peptide pool-pulsed homologous B cells; format: cell-based, human
Description: FIGS. 12A-B. Identification of HLA-A2 T-cell specific peptides using anti-human IFN-γ ELISPOT with T cells from one HLA A2^+ normal donor. (FIG. 12A) T cells, stimulated by peptide pool-pulsed homologous B cells three (3rd T cells) or four (4th T cells) times were reactive with two pools from a HERV-K HLA A2^+9-mer peptide library (pool #1-11 and pool #12-22). NP is no peptide control. (FIG. 12B) Photographs of actual plates for FIG. 12A.
FIGS. 13A-B. Identification of HLA-A2 T cell specific epitopes using anti-human IFN-γ ELISPOT. T cells obtained from PBMC stimulated by peptide pool-pulsed homologous B cells three (3rd T cells) or four (4th T cells) times, were reactive with individual peptides. (FIG. 13A) Image of ELISPOT. (FIG. 13B) The code of peptides evaluated in ELISPOT assays.
FIGS. 14A-C. Summary of number of ELISPOTs from each individual peptide. Numbers of spots detected (pool 1-11, pool 12-22, and pool 23-33) in ELISPOTS with a single peptide are shown. NP contains no peptide (as control). (FIG. 14A) Summary of number of ELISPOTs from each individual peptide including #1, #2, #3, #5, #6, #7, #8, and #9, and peptide pool #1 to #11. (FIG. 14B) Summary of number of ELISPOTs from each individual peptide including #12, #13, #14, #15, #17, #18, #19, #20, #22 and peptide pool #12 to #22. (FIG. 14C) Summary of number of ELISPOTs from each individual peptide including #23, #24, #25, #26, #27, #28, #30, #31, #32, #33, and peptide pool #23 to #33. 4th T cells indicated the T cells had been stimulated with peptide pool 4 times and 3rd T cells indicated the T cells had been stimulated with peptide pool 3 times.
The inventor used epitope mapping to identify responses to HERV-K peptides in breast cancer patients. They chemically synthesized a HERV-K env nine amino acid (9mer) peptide library (33 HLA A2 restricted peptides) and overlapping 15mer peptide library (144 peptides). Preliminary research has identified two pools from the HERV-K env 9mer peptide library that contain potential CD8+ epitopes, using interferon gamma (IFN-γ) enzyme-linked immunosorbent spot (ELISPOT) assay with T cells from one HLA A2^+ normal donor which was stimulated with the 9mer peptide pool-pulsed homologous dendritic cells (DCs).
HLA-2+ patients were identified by flow cytometry using anti-A2 antibody. Activated B cells were cultured from PBMCs stimulated with irradiated 3T3-CD40L-expressing fibroblasts. Normal donor CD8+ T-cell lines were obtained from PBMCs stimulated with autologous activated B cells pulsed with peptide pools (peptides are in 3 pools: #1-11, #12-22, and #23-33); the stimulation was repeated for 3-4 cycles. HERV-K specific T cells generated from normal donor lines were tested for peptide reactivity using IFN-γ ELISPOT assays (FIGS. 12A-B).

IVS cells = test: IFN-γ ELISPOT with IVS cells (DC pulsed once with HERV-K protein) against MAPs, 9-mer pools or single peptides; format: cell-based, human; conditions: donor 449731, IVS cells, FIG. 15C
Description: FIGS. 15A-C. ELISPOT was employed to determine the production of IFN-γ in twelve 15-mer small pools. (FIG. 15A) Numbers of spots detected in multiple pools are shown for a breast cancer patient diagnosed with IDC (Acc 30) or a patient diagnosed with teratoma (Acc 32). (FIG. 15B) Numbers of spots detected in multiple pools are shown for a patient diagnosed with left breast minute foci of sugg papillary lesion (967092) or IDC (Acc 31). SP 1-12 represents small peptide pools #1-12. Pool 0 contains no peptides (as control). (FIG. 15C) T cells obtained from PBMC stimulated once with HERV-K-specific pulsed homologous B cells were reactive with individual MAPs, pools of 9-mer peptides, or single 9-mer peptides. NP: no peptide control.
IVS were obtained from two donor pairs stimulated with DC pulsed once with HERV-K protein. After 7 days (1-week stimulation), IVS cells were used for ELISPOT with 15-mer peptides (FIGS. 15A-B) or MAPs including MAP73, MAP75-76, MAP82-93, MAP 92-93, and MAP95-96 or 9 mer peptide pools (#1 to 5, #5 to 10, #1 to 10, #12 to 17, #18 to 22) or single peptides (#3, #18, and #4.11; FIG. 15C). Candidate epitopes (#4 and #11) were further identified using IVS generated from DC obtained from cancer patients stimulated with HERV-K antigen in this study.

Sequence | CD8 T epitope for HLA-A2 donors [1] | IFN-γ ELISPOT spots with individual peptide ([1]; T cell stimulated 3 times with peptide pool #12 to 22) | IFN-γ ELISPOT spots with individual peptide ([1]; T cell stimulated 4 times with peptide pool #12 to 22) | HERV-K specific T cell epitope (IFN-γ ELISPOT) (IVS cells) | IFN-γ ELISPOT spots with individual peptide ([1]; T cell stimulated 4 times with peptide pool #1 to 11)
IINLILILV [HERVK-18] | may be CD8 T epitopes | numerous spots | numerous spots | HERV-K specific T cell epitopes | 
YMLVVGNIV [HERVK-3] | may be CD8 T epitopes |  |  | HERV-K specific T cell epitopes | numerous spots
